For one assay, the system named is HCT-116. The experiment in a line: cells. As to conditions: Homo sapiens.
The next assay has as its system A-375. The experiment in a line: cells. The following applies: Homo sapiens.
For assay [1], the target named is RAF proto-oncogene serine/threonine-protein kinase (Homo sapiens, UniProt P04049). The assay can be described thus: Inhibition of C-Raf.
Chain of RAF proto-oncogene serine/threonine-protein kinase (P04049 whole entry): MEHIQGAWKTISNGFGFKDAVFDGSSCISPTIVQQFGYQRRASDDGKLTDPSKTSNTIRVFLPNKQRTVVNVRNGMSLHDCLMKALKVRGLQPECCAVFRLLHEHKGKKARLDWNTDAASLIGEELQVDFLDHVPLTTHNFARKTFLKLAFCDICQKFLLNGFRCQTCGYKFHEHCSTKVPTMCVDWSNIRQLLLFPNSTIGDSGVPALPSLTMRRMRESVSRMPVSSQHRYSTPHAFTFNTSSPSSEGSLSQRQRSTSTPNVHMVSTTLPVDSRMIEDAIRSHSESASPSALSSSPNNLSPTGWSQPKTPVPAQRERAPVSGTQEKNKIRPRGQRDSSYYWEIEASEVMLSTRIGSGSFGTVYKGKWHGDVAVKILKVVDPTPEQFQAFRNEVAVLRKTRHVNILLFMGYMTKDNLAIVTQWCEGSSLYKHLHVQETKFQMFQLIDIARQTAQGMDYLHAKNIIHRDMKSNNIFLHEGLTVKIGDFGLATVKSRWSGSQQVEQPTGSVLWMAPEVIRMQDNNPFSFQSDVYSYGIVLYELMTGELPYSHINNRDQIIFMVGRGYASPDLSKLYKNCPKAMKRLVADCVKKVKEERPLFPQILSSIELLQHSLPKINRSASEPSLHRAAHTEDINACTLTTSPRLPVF

For `OCCn1cc(-c2ccc3c(c2)CC/C3=N\O)c(-c2ccncc2)n1`, the half-maximal inhibitory concentration (IC50) in the assay with HCT-116 is more than 20000 nM; in the assay on A-375, less than 500 nM.
As to `CNC(=O)c1cc(Oc2ccc(NC(=O)Nc3ccc(Cl)c(C(F)(F)F)c3)cc2)ccn1` [SORAFENIB], the IC50 is 2000 nM in the assay on HCT-116 and 2400 nM in the assay on A-375.
Take `CCCS(=O)(=O)Nc1ccc(F)c(C(=O)c2c[nH]c3ncc(Cl)cc23)c1F` [PLX-4720]: the half-maximal inhibitory concentration (IC50) in the assay with HCT-116 was found to be 27000 nM; in the assay on A-375, 500 nM.
`CN(C)CCOc1ccc(-c2nc(-c3ccncc3)c(-c3ccc4c(c3)CC/C4=N\O)[nH]2)cc1` [SB590885]: the 50% inhibitory concentration (IC50) in the assay with HCT-116 stood at 4600 nM; in the assay on A-375, 370 nM.
In assay [1], `Cc1ccc2c(Nc3ccc(Cl)cc3)nccc2c1Nc1ncccc1-c1ncnc2[nH]cnc12` came in with an inhibitory constant (Ki) of 0.3 nM. For the same compound, the IC50 in the assay on HCT-116 is 720 nM; in the assay on A-375 it was 310 nM.

A word on the IC50: it is the midpoint of a concentration-inhibition curve. Read a low IC50 as greater potency in that assay. Usually Ki stands for the equilibrium dissociation constant of an inhibitor or competing ligand from its target. A low value points to tighter binding.

The record behind these values is ChEMBL document CHEMBL2169832, “Conformation-specific effects of Raf kinase inhibitors” (J Med Chem, 2012).
